Experimental data from patent US9249148B2, “Tris(hetero)arylpyrazoles and use thereof” (AICURIS GMBH & CO. KG, priority 2012, dated 2016).

Experiments:
Type in all cases: cell-based
HIV-1NL4-3 wildtype = assay: Luminescence Reduction Assay, luciferase reporter virus in MT4 cells; details: Human immunodeficiency virus 1, MT4, read-out: EC50 (μM) MT4 cells HIV-1NL4-3 wildtype 2% FBS
Source text: (§1) For this assay, HIV-1NL4-3 reporter viruses are used which carry the luciferase164 gene (lu164) in place of the nef gene. The viruses are generated by transfection of 293T cells with the corresponding proviral pNL4-3 plasmid (Lipofectamine Reagent, Invitrogen, Karlsruhe, Germany). Starting from the proviral plasmid DNA, viruses with defined resistance mutations (single or combined) are produced in the reverse transcriptase gene using the “QuikChange II XL Site-Directed Mutagenesis Kit” (Stratagene, Cedar Creek, Tex., USA). Resistance mutations include, among others: L74V, A98G, A98S, L100I, K101E, K103N, V106A, V106I, V106M, V108I, V108A, E138K, V179I, V179D, V179E, Y181C, Y181I, Y188L, G190A, G1905, H221Y, P225H, F227C, F227L, F227V, M230I, M230L, L234I, P236L, N348I, T369A, T369I, T369V. MT4 cells infected with these reporter viruses (NIH AIDS Research and Reference Reagent Program) secrete luciferase into the medium, which enables the luminometric quantification of the virus replication.
(§2) For starting a 96-well MTP, 3 million MT4 cells are pelleted, suspended in 1 ml RPMI 1640 medium without phenol red (Invitrogen, Karlsruhe, Germany)/10% FBS/2 mM L-glutamine/1% Pen/Strep (Invitrogen, Karlsruhe, Germany), and incubated for 2 hours at 37° C. with a suitable quantity of the relevant HIV-1NL4-3 reporter virus (pellet infection). Non-adsorbed viruses are then washed out, and the infected cells are pelleted again and suspended in 8 ml RPMI 1640 medium without phenol red/2% or 10% FBS/2 mM L-glutamine/1% Pen/Strep. From this, 90 μl per well is pipetted into a white 96-well MTP to 10 μl of test substance at a suitable level of dilution. In order to avoid edge effects, the edge wells of the MTP are not used for substance dilutions. The second vertical row of the MTP contains only infected cells (virus control) and the eleventh vertical row only non-infected cells (cell control), each in RPMI 1640 medium without phenol red/2% or 10% FBS/2 mM L-glutamine/1% Pen/Strep. The remaining wells of the MTP contain the compounds in accordance with the invention in various concentrations, starting from the third vertical row, from which the test substances are diluted in 3-step sequences up to the tenth vertical row by a factor of 3^7. The test substances are dissolved in DMSO; the final DMSO concentration in the test formulation is 1%.

HIV-1LAI wildtype = assay: alamarBlue Viability Assay with HIV-1LAI-infected MT4 cells; details: Human immunodeficiency virus 1, 10% FBS
Procedure: For starting a 96-well MTP, 3 million PBLs are pelleted, suspended in 1 ml RPMI 1640 medium/10% FBS/2 mM L-glutamine/1% Pen/Strep and incubated for 2 hours at 37° C. with a suitable quantity of the relevant HIV-1LAI (NIH AIDS Research & Reference Reagent Program, Germantown, USA) (pellet infection). Non-adsorbed viruses are then washed out, and the infected cells pelleted again and suspended in 18 ml RPMI 1640 medium/10% FBS/2 mM L-glutamine/1% Pen/Strep/Interleukin-2 (40 U/ml). From this, 180 μl per well is pipetted into a 96-well MTP to 20 μl of test substance at a suitable level of dilution. Alternatively, the HIV is added after preparation of the substance dilutes in the MTP together with the cells, and is not washed out (supernatant infection). In order to avoid edge effects, the edge wells of the MTP are not used for substance dilutions. The second vertical row of the MTP contains only infected cells (virus control) and the eleventh vertical row only non-infected cells (cell control), each in RPMI 1640 medium/10% FBS/2 mM L-glutamine/1% Pen/Strep/Interleukin-2 (40 U/ml). The remaining wells of the MTP contain the compounds in accordance with the invention in various concentrations, starting from the third vertical row, from which the test substances are diluted in 3-step sequences up to the tenth vertical row by a factor of 3^7. The test substances are dissolved in DMSO; the final DMSO concentration in the test preparation is 1%. The test samples are incubated for 5 days at 37° C./5% CO2. After 5 to 7 days, 50 μl of cell-free supernatant is removed from each well to determine its p24 content using p24 ELISA (HIV-1 p24CA Antigen Capture Assay Kit, NCI-Frederick Cancer Research and Development Center, Frederick, USA). From the resulting values of the photometric analysis (450/620 nm), the EC50 values of the test substances are determined from the resulting dose-response curves using the Prism4 software (GraphPad, San Diego, Calif.) as the concentration of treated infected cells, where the p24 quantity is 50% of the untreated infected cells.
Alternatively, MT4 cells are used in place of PBLs for testing the test substances. HIV-1LAI-infected MT4 cells (MOI 0.01, supernatant infection) are incubated in accordance with the procedure described above in RPMI 1640 medium using 2% or 10% FKS/2 mM L-glutamine/1% Pen/Strep in the presence of the test substances for 5 days at 37° C./5% CO2 (10 μl diluted substance and 90 μl cells/virus per well). 10 μl alamarBlue (Invitrogen, Karlsruhe, Germany) is then added per well and the MTPs are incubated for 3 hours at 37° C. before fluorimetric evaluation is performed (544/590 nm). Using quattroWorkflow software (Quattroresearch, Martinsried, Germany), the EC50 values of the test substances are determined from the resulting dose-response curves as the concentration of treated infected cells in which the fluorescence is 50% of that of the untreated, non-infected cells.

HIV-1NL4-3 K103N-Y181C = assay: Luminescence Reduction Assay, luciferase reporter virus with resistance mutations in MT4 cells; details: Human immunodeficiency virus 1, MT4, read-out: EC50 (μM) MT4 cells HIV-1NL4-3 K103N-Y181C 2% FBS
Source text: as §1, §2

SMILES	EC50 (HIV-1NL4-3 wildtype)	EC50 (HIV-1LAI wildtype)	EC50 (HIV-1NL4-3 K103N-Y181C)
O=C1NCc2c1cccc2-c1cc(-c2cc(Cl)cc(OC(F)F)c2)n(-c2cccnc2)n1 [Example 18, 4-{5-[3-chloro-5-(difluoromethoxy)phenyl]-1-(pyridine-3-yl)-1H-pyrazole-3-yl}-2,3-dihydro-1H-isoindole-1-one]	0.0056 µM	0.0177 µM	0.013 µM
O=C1NCc2c1ccnc2-c1cc(-c2cc(Br)cc(OC(F)F)c2)n(-c2cccnc2)n1 [Example 19, 4-{5-[3-bromo-5-(difluoromethoxy)phenyl]-1-(pyridine-3-yl)-1H-pyrazole-3-yl}-2,3-dihydro-1H-pyrrolo[3,4-c]pyridine-1-one]	0.0003 µM	0.0028 µM	0.0019 µM
O=C1NCc2c1ccnc2-c1cc(-c2cc(Br)cc(OC(F)F)c2)n(-c2ccnc(Cl)c2)n1 [Example 20, 4-{5-[3-bromo-5-(difluoromethoxy)phenyl]-1-(2-chloropyridine-4-yl)-1H-pyrazole-3-yl}-2,3-dihydro-1H-pyrrolo[3,4-c]pyridine-1-one]	0.001 µM	0.0118 µM	0.004 µM
O=C1NCc2c1cccc2-c1cc(-c2cc(Br)cc(OC(F)F)c2)n(-c2cccnc2)n1 [Example 21, 4-{5-[3-bromo-5-(difluoromethoxy)phenyl]-1-(pyridine-3-yl)-1H-pyrazole-3-yl}-2,3-dihydro-1H-isoindole-1-one]	0.0063 µM	0.0325 µM	0.0283 µM
Cc1cc(F)cc(-c2cc(-c3nccc4c3CNC4=O)nn2-c2ccc(F)c(Cl)c2)c1 [Example 22]	0.0009 µM	0.0245 µM	0.0077 µM
Cc1cc(F)cc(-c2cc(-c3cccc4c3CNC4=O)nn2-c2ccc(F)c(Cl)c2)c1 [Example 23]	0.015 µM	0.0983 µM	0.0565 µM
N#Cc1cc(-n2nc(-c3nccc4c3CNC4=O)cc2-c2cc(F)cc(Cl)c2)ccc1F [Example 24]	0.0002 µM	0.0006 µM	0.0003 µM
N#Cc1cc(-n2nc(-c3cccc4c3CNC4=O)cc2-c2cc(F)cc(Cl)c2)ccc1F [Example 25]	0.0009 µM	0.0107 µM	0.0112 µM
O=C1NCc2c1ccnc2-c1cc(-c2cc(F)cc(Cl)c2)n(-c2cccc(Cl)c2)n1 [Example 26]	0.0017 µM	0.0153 µM	0.0208 µM
COc1cc(OC(F)(F)F)cc(-c2cc(-c3nccc4c3CNC4=O)nn2-c2ccc(F)c(Cl)c2)c1 [Example 27]	0.0384 µM	0.148 µM	0.0219 µM
Cc1ccc(-n2nc(-c3nccc4c3CNC4=O)cc2-c2cc(F)cc(Cl)c2)cc1Cl [Example 28]	0.0172 µM	0.0876 µM	0.0291 µM
O=c1[nH][nH]c2c(-c3cc(-c4cc(F)cc(Cl)c4)n(-c4ccc(F)c(Cl)c4)n3)cccc12 [Example 29]	0.39 µM	2.06 µM	1.22 µM
O=C1NCc2c1ccnc2-c1cc(-c2cc(Cl)cc(C(F)(F)F)c2)n(-c2ccc(F)c(Cl)c2)n1 [Example 30]	0.0075 µM	0.0881 µM	0.011 µM
O=C1NCc2c1ccnc2-c1cc(-c2cncc(Cl)c2)n(-c2ccc(F)c(Cl)c2)n1 [Example 31]	0.0008 µM	0.0041 µM	0.0024 µM
O=C1NCc2c1cccc2-c1cc(-c2cncc(Cl)c2)n(-c2ccc(F)c(Cl)c2)n1 [Example 32]	0.0069 µM	0.0273 µM	0.0383 µM
O=C1NCc2c1ccnc2-c1cc(-c2cccc(F)c2F)n(-c2ccc(F)c(Cl)c2)n1 [Example 33]	0.0227 µM	0.0641 µM	0.061 µM
O=C1NCc2c1cccc2-c1cc(-c2cccc(F)c2F)n(-c2ccc(F)c(Cl)c2)n1 [Example 34]	0.131 µM	0.75 µM	0.458 µM
N#Cc1cccc(-c2cc(-c3nccc4c3CNC4=O)nn2-c2ccc(F)cc2)c1 [Example 35]	0.0593 µM	0.15 µM	0.0317 µM
N#Cc1cccc(-c2cc(-c3cccc4c3CNC4=O)nn2-c2ccc(F)cc2)c1 [Example 36]	0.0848 µM	0.449 µM	0.0675 µM
O=C1NCc2c1ccnc2-c1cc(-c2cccc(Cl)c2)n(-c2cccc(C(F)(F)F)c2)n1 [Example 37]	0.0288 µM	0.0835 µM	0.148 µM
O=C1NCc2c1cccc2-c1cc(-c2cccc(Cl)c2)n(-c2cccc(C(F)(F)F)c2)n1 [Example 38]	0.18 µM	0.948 µM	1.18 µM
COc1cccc(-n2nc(-c3nccc4c3CNC4=O)cc2-c2ccnc(Cl)c2)c1 [Example 39]	0.0075 µM	0.0486 µM	0.0692 µM
COc1cccc(-n2nc(-c3cccc4c3CNC4=O)cc2-c2ccnc(Cl)c2)c1 [Example 40]	0.0517 µM	0.222 µM	0.499 µM
O=C1NCc2c1cccc2-c1cc(-c2cc(F)cc(Cl)c2)n(-c2cccc(Cl)c2)n1 [Example 41]	0.0112 µM	0.0807 µM	0.152 µM
O=C1NCc2c1ccnc2-c1cc(-c2cccc(OC(F)F)c2)n(-c2ccc(F)c(Cl)c2)n1 [Example 42]	0.0098 µM	0.0717 µM	0.0194 µM
O=C1NCc2c1ccnc2-c1cc(-c2ccc(F)c(OC(F)(F)F)c2)n(-c2cccc(Cl)c2)n1 [Example 43]	0.0568 µM	0.674 µM	0.2 µM
O=C1NCc2c1cccc2-c1cc(-c2ccc(F)c(OC(F)(F)F)c2)n(-c2cccc(Cl)c2)n1 [Example 44]	0.533 µM	1.91 µM	0.458 µM
O=C1NCc2c1ncnc2-c1cc(-c2cc(Cl)cc(OC(F)(F)F)c2)n(-c2cccnc2)n1 [Example 45]	0.0005 µM	0.0045 µM	0.0007 µM
Cc1nc2c(c(-c3cc(-c4cc(Cl)cc(OC(F)(F)F)c4)n(-c4cccnc4)n3)n1)CNC2=O [Example 46]	0.0004 µM	0.0023 µM	0.0004 µM
